Tested on: HUVECs
Experiment: Radiation-induced EndMT / stress fiber phenomic screening in HUVECs using the HCS system
Format: cell-based, human
Settings: 48 hours, compared to IR (control) treated group; for Stress Fiber Pre-: HUVECs pre-treated 1 hour before radiation; for Stress Fiber Pre- / Stress Fiber Post-: Phalloidin; for Stress Fiber Post-: HUVECs treated after 10 Gy irradiation (3 hours)
Experimental: We established a phenomic screening platform to measure radiation-induced stress fibers and optimized the conditions for high-throughput screening using HUVEC cells to develop compounds targeting RIPF. […] 2-ME derivatives were prepared and their anti-fibrotic activities were tested in vitro [Table 3] and in vivo mouse models [FIGS. 1 and 2]. […] In this test, HUVECs were pre-treated with 2-ME derivatives at 1 hour before radiation and irradiated with 10 Gy. After 48 hours, HUVECs stained with Phalloidin and Hoechst to assess morphological changes Collagen type 1 (BD Collagen I, 354236, Thermo Fisher Scientific) was diluted in 70% ethanol, and then the collagen solution (400 μg/ml) was dispensed into each 384-well plate (6007550, Perkin Elmer, MA, US). After a 1-hour incubation at room temperature, the wells were rinsed twice with Dulbecco's phosphate-buffered saline. HUVECs were seeded at a density of 7×10^2 cells per well onto collagen-coated, 384-well plates and allowed to attach in complete growth media. Cells were then exposed to 10 Gy radiation at room temperature. After irradiation, the cells were incubated for an additional 3 hours. The compounds were tested at a final concentration of 10 μM in 0.5% dimethyl sulfoxide (DMSO; v/v) using an automated liquid handling system (Hummingbird, Analytik Jena, Jena, DE). After the 48-hour treatment, cells were fixed with 4% paraformaldehyde (w/v). The expression of actin filament was determined by incubation with 488-Phalloidin (1:100, MOP-[…], Thermo Fisher Scientific) using direct immunofluorescence staining. The nuclei were stained using Hoechst 33342 (1:1000, MOP-H3570, Thermo Fisher Scientific) at room temperature. For assay validation, a control run was performed. The low control consisted of three 384-well plates that contained irradiated cells, and the high control consisted of three 384-well plates that contained non-irradiated cells. For detecting and visualizing filamentous actin (F-actin) and nuclei, images were collected using an automated high-content imaging system with a 20× magnifying objective (Operetta, PerkinElmer). The acquired images were analyzed using an in-house software tool and Harmony 3.5.1® high-content imaging (Harmony, PerkinElmer) for segmentation of cells.

COc1cc2c(cc1OC(C)=O)CCC1C2CC[C@@]2(C)C1CC[C@@H]2O (stereo partly shown) [compound 10]
Stress Fiber Pre- (10 Gy): O (there were stress fiber decreasing more than 20% compare to IR (control) treated group)
Stress Fiber Post- (10 μM): O (there were stress fiber decreasing more than 20% compare to IR (control) treated group)

COc1cc2c(cc1O)CCC1C2CC[C@]2(C)C(=O)C=CC12 (stereo partly shown) [compound 2]
Cell number (HUVECs, 10 Gy, 10 μM): X (there were more than 10% changes in the cell number compare to IR (control) treated group)

CCC(=O)Oc1cc2c(cc1OC)C1CC[C@@]3(C)C(CC[C@@H]3OC(=O)CC)C1CC2 (stereo partly shown) [compound 6]
Stress Fiber Pre- (10 Gy): O (there were stress fiber decreasing more than 20% compare to IR (control) treated group)

CCC(=O)Oc1cc2c(cc1OC)C1CC[C@@]3(C)C(CC[C@@H]3O)C1CC2 (stereo partly shown) [compound 11]
Stress Fiber Pre- (10 Gy): O (there were stress fiber decreasing more than 20% compare to IR (control) treated group)
Stress Fiber Post- (10 μM): O (there were stress fiber decreasing more than 20% compare to IR (control) treated group)

COc1cc2c(cc1OC(C)=O)CCC1C2CC[C@@]2(C)C1CC[C@@H]2OC(C)=O (stereo partly shown) [compound 5]
Stress Fiber Pre- (10 Gy): O (there were stress fiber decreasing more than 20% compare to IR (control) treated group)
